# Assay results reported in patent publication US10597388B2, “Pyridazinone herbicides” (FMC CORPORATION, priority 2014, dated 2020).
# Columns and labels:
# Format in all cases: in vivo
# corn (Zea mays) = assay: Test A greenhouse herbicide test, pre- and postemergence; details: Postemergence; for Plant response rating, Corn: 125 g ai/ha, 0 to 100 scale where 0 is no effect and 100 is complete control; for Corn plant response rating: 0 to 100 scale, 0 is no effect, 100 is complete control
# Outline: (§1)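 Seeds in loam–sand blend received a preemergence directed soil spray; plants at 2–10 cm, one- to two-leaf stage, received postemergence sprays. Compounds in a non-phytotoxic solvent with surfactant. After about 10 d in a greenhouse, injury rated visually versus untreated controls on a 0–100 scale (100 = complete control).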
# [1] = system: foxtail, giant (giant foxtail, Setaria faberii); assay: as above
# Outline: as §1
# kochia (Kochia scoparia) = assay: as above
# Outline: as §1
# [2] = system: pigweed (Amaranthus retroflexus); assay: as above
# Outline: as §1
# [3] = system: ragweed (common ragweed, Ambrosia elatior); assay: as above
# Outline: as §1
# [4] = system: ryegrass, Italian (Italian ryegrass, Lolium multiflorum); assay: as above
# Outline: as §1
# [5] = system: wheat (Triticum aestivum); assay: as above; details: Postemergence; for Plant response rating, Wheat: 125 g ai/ha, 0 to 100 scale where 0 is no effect and 100 is complete control; for Wheat plant response rating: 0 to 100 scale, 0 is no effect, 100 is complete control
# Outline: as §1
# [6] = system: galium (catchweed bedstraw, Galium aparine); assay: Test C greenhouse herbicide test, pre- and postemergence
# Outline: (§2)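 Visual ratings on a 0 to 100 scale (0 = no effect, 100 = complete control) versus untreated controls, scored 13–15 d after treatment. Soil-applied preemergence to seeded loam/sand; foliar postemergence to 1- to 4-leaf plants (2–18 cm) in peat-vermiculite mix; compounds formulated in solvent plus surfactant.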
# [7] = system: nutsedge, yellow (yellow nutsedge, Cyperus esculentus); assay: as above
# Outline: as §2
# [8] = system: oilseed rape (Brassica napus); assay: as above
# Outline: as §2
# [9] = system: velvetleaf (Abutilon theophrasti); assay: as above
# Outline: as §2
# [10] = Postemergence, 125 g ai/ha, 0 to 100 scale where 0 is no effect and 100 is complete control
# [11] = Postemergence, 500 g ai/ha, 0 to 100 scale, 0 is no effect, 100 is complete control
# [12] = Preemergence, 125 g ai/ha, 0 to 100 scale where 0 is no effect and 100 is complete control
# [13] = Preemergence, 500 g ai/ha, 0 to 100 scale, 0 no effect, 100 complete control
# [14] = Postemergence, 31 g ai/ha, 0 to 100 scale (0 no effect, 100 complete control)
# [15] = Postemergence, 125 g ai/ha, scale 0 to 100, 0 is no effect, 100 is complete control
# [16] = Postemergence, 250 g ai/ha, scale 0 to 100, 0 no effect, 100 complete control, 13 to 15 d
# [17] = postemergence, 62 g ai/ha, scale 0 to 100, 0 no effect, 100 complete control
# [18] = Preemergence, 31 g ai/ha, scale 0 to 100, 0 is no effect, 100 is complete control
# [19] = Preemergence, 62 g ai/ha, scale 0 to 100, 0 is no effect, 100 is complete control
# [20] = Preemergence, 125 g ai/ha, scale 0 to 100, 0 is no effect, 100 is complete control
# [21] = Preemergence, 250 g ai/ha, scale 0 to 100 (0 no effect, 100 complete control)
# [22] = Postemergence, 1000 g ai/ha, 0 to 100 scale, 0 is no effect, 100 is complete control
# [23] = Preemergence, 1000 g ai/ha, 0 to 100 scale, 0 no effect, 100 complete control
smiles,measurement,setting,value
Cc1ccc2ccccc2c1-c1c(O)cnn(C)c1=O [Compound 56],"Plant response rating, Corn",corn (Zea mays),0
same,Corn plant response rating,corn (Zea mays); 500 g ai/ha,10
same,"Plant response rating, Foxtail, Giant",[1]; [10],20
same,"Foxtail, Giant plant response rating",[1]; [11],60
same,"Foxtail, Giant plant response rating",[1]; [12],30
same,"Plant response rating, Foxtail, Giant",[1]; [13],70
same,"Plant response rating, Kochia",kochia (Kochia scoparia); [10],90
same,Kochia plant response rating,kochia (Kochia scoparia); [11],100
same,Kochia plant response rating,kochia (Kochia scoparia); [12],40
same,"Plant response rating, Kochia",kochia (Kochia scoparia); [13],90
same,"Plant response rating, Pigweed",[2]; [10],80
same,Pigweed plant response rating,[2]; [11],90
same,Pigweed plant response rating,[2]; [12],60
same,"Plant response rating, Pigweed",[2]; [13],100
same,"Plant response rating, Ragweed",[3]; [10],70
same,Ragweed plant response rating,[3]; [11],90
same,Ragweed plant response rating,[3]; [12],80
same,"Plant response rating, Ragweed",[3]; [13],90
same,"Plant response rating, Ryegrass, Italian",[4]; [10],90
same,"Ryegrass, Italian plant response rating",[4]; [11],100
same,"Ryegrass, Italian plant response rating",[4]; [12],100
same,"Plant response rating, Ryegrass, Italian",[4]; [13],100
same,"Plant response rating, Wheat",[5],10
same,Wheat plant response rating,[5]; 500 g ai/ha,50
same,Galium plant response rating,[6]; [14],80
same,"Plant response rating, Galium",[6]; [15],90
same,"Plant response rating, Galium",[6]; [16],90
same,Galium plant response rating,[6]; [17],85
same,"Nutsedge, Yellow plant response rating",[7]; [14],0
same,"Plant response rating, Nutsedge, Yellow",[7]; [15],50
same,"Plant response rating, Nutsedge, Yellow",[7]; [16],60
same,"Nutsedge, Yellow plant response rating",[7]; [17],5
same,Oilseed Rape plant response rating,[8]; [14],0
same,"Plant response rating, Oilseed Rape",[8]; [15],0
same,"Plant response rating, Oilseed Rape",[8]; [16],0
same,Oilseed Rape plant response rating,[8]; [17],0
same,Velvetleaf plant response rating,[9]; [14],0
same,"Plant response rating, Velvetleaf",[9]; [15],15
same,"Plant response rating, Velvetleaf",[9]; [16],70
same,Velvetleaf plant response rating,[9]; [17],0
Cc1ccc2ccccc2c1-c1c(O)c(C)nn(C)c1=O [Compound 59],"Plant response rating, Corn",corn (Zea mays),20
same,Corn plant response rating,corn (Zea mays); 500 g ai/ha,60
same,"Plant response rating, Foxtail, Giant",[1]; [10],90
same,"Foxtail, Giant plant response rating",[1]; [11],100
same,"Foxtail, Giant plant response rating",[1]; [12],90
same,"Plant response rating, Foxtail, Giant",[1]; [13],100
same,"Plant response rating, Kochia",kochia (Kochia scoparia); [10],100
same,Kochia plant response rating,kochia (Kochia scoparia); [11],100
same,Kochia plant response rating,kochia (Kochia scoparia); [12],90
same,"Plant response rating, Kochia",kochia (Kochia scoparia); [13],90
same,"Plant response rating, Pigweed",[2]; [10],100
same,Pigweed plant response rating,[2]; [11],100
same,Pigweed plant response rating,[2]; [12],100
same,"Plant response rating, Pigweed",[2]; [13],100
same,"Plant response rating, Ragweed",[3]; [10],90
same,Ragweed plant response rating,[3]; [11],100
same,Ragweed plant response rating,[3]; [12],90
same,"Plant response rating, Ragweed",[3]; [13],100
same,"Plant response rating, Ryegrass, Italian",[4]; [10],100
same,"Ryegrass, Italian plant response rating",[4]; [11],100
same,"Ryegrass, Italian plant response rating",[4]; [12],90
same,"Plant response rating, Ryegrass, Italian",[4]; [13],100
same,"Plant response rating, Wheat",[5],50
same,Wheat plant response rating,[5]; 500 g ai/ha,100
same,Galium plant response rating,[6]; [14],95
same,"Plant response rating, Galium",[6]; [15],98
same,"Plant response rating, Galium",[6]; [16],98
same,"Plant response rating, Galium",[6]; [18],98
same,"Plant response rating, Galium",[6]; [19],95
same,"Plant response rating, Galium",[6]; [20],98
same,Galium plant response rating,[6]; [21],98
same,Galium plant response rating,[6]; [17],98
same,"Nutsedge, Yellow plant response rating",[7]; [14],65
same,"Plant response rating, Nutsedge, Yellow",[7]; [15],95
same,"Plant response rating, Nutsedge, Yellow",[7]; [16],95
same,"Plant response rating, Nutsedge, Yellow",[7]; [18],80
same,"Plant response rating, Nutsedge, Yellow",[7]; [19],80
same,"Plant response rating, Nutsedge, Yellow",[7]; [20],85
same,"Nutsedge, Yellow plant response rating",[7]; [21],90
same,"Nutsedge, Yellow plant response rating",[7]; [17],85
same,Oilseed Rape plant response rating,[8]; [14],5
same,"Plant response rating, Oilseed Rape",[8]; [15],40
same,"Plant response rating, Oilseed Rape",[8]; [16],55
same,"Plant response rating, Oilseed Rape",[8]; [18],65
same,"Plant response rating, Oilseed Rape",[8]; [19],80
same,"Plant response rating, Oilseed Rape",[8]; [20],95
same,Oilseed Rape plant response rating,[8]; [21],95
same,Oilseed Rape plant response rating,[8]; [17],50
same,Velvetleaf plant response rating,[9]; [14],80
same,"Plant response rating, Velvetleaf",[9]; [15],90
same,"Plant response rating, Velvetleaf",[9]; [16],95
same,"Plant response rating, Velvetleaf",[9]; [18],85
same,"Plant response rating, Velvetleaf",[9]; [19],90
same,"Plant response rating, Velvetleaf",[9]; [20],98
same,Velvetleaf plant response rating,[9]; [21],100
same,Velvetleaf plant response rating,[9]; [17],85
Cc1ccc2ccc(C)c(-c3c(O)c(C)nn(C)c3=O)c2c1 [Compound 60],Corn plant response rating,corn (Zea mays); 1000 g ai/ha,50
same,"Foxtail, Giant plant response rating",[1]; [22],90
same,"Plant response rating, Foxtail, Giant",[1]; [23],90
same,Kochia plant response rating,kochia (Kochia scoparia); [22],100
same,"Plant response rating, Kochia",kochia (Kochia scoparia); [23],80
same,Pigweed plant response rating,[2]; [22],100
same,"Plant response rating, Pigweed",[2]; [23],100
same,Ragweed plant response rating,[3]; [22],100
same,"Plant response rating, Ragweed",[3]; [23],100
same,"Ryegrass, Italian plant response rating",[4]; [22],100
same,"Plant response rating, Ryegrass, Italian",[4]; [23],100
same,Wheat plant response rating,[5]; 1000 g ai/ha,70
same,Galium plant response rating,[6]; [14],100
same,"Plant response rating, Galium",[6]; [15],100
same,"Plant response rating, Galium",[6]; [16],100
same,"Plant response rating, Galium",[6]; [18],90
same,"Plant response rating, Galium",[6]; [19],95
same,"Plant response rating, Galium",[6]; [20],98
same,Galium plant response rating,[6]; [21],100
same,Galium plant response rating,[6]; [17],100
same,"Nutsedge, Yellow plant response rating",[7]; [14],85
same,"Plant response rating, Nutsedge, Yellow",[7]; [15],90
same,"Plant response rating, Nutsedge, Yellow",[7]; [16],95
same,"Plant response rating, Nutsedge, Yellow",[7]; [18],45
same,"Plant response rating, Nutsedge, Yellow",[7]; [19],45
same,"Plant response rating, Nutsedge, Yellow",[7]; [20],85
same,"Nutsedge, Yellow plant response rating",[7]; [21],85
same,"Nutsedge, Yellow plant response rating",[7]; [17],85
same,Oilseed Rape plant response rating,[8]; [14],5
same,"Plant response rating, Oilseed Rape",[8]; [15],85
same,"Plant response rating, Oilseed Rape",[8]; [16],80
same,"Plant response rating, Oilseed Rape",[8]; [18],30
same,"Plant response rating, Oilseed Rape",[8]; [19],85
same,"Plant response rating, Oilseed Rape",[8]; [20],90
same,Oilseed Rape plant response rating,[8]; [21],90
same,Oilseed Rape plant response rating,[8]; [17],5
same,Velvetleaf plant response rating,[9]; [14],40
same,"Plant response rating, Velvetleaf",[9]; [15],90
same,"Plant response rating, Velvetleaf",[9]; [16],95
same,"Plant response rating, Velvetleaf",[9]; [18],75
same,"Plant response rating, Velvetleaf",[9]; [19],85
same,"Plant response rating, Velvetleaf",[9]; [20],95
same,Velvetleaf plant response rating,[9]; [21],98
same,Velvetleaf plant response rating,[9]; [17],85
